These results are taken from patent US20120220603A1, “SUBSTITUTED HETEROCYCLIC DERIVATIVES FOR THE TREATMENT OF PAIN AND EPILEPSY” (ZALICUS PHARMACEUTICALS LTD., priority 2009, published 2012).

pIC50: −log10 of the molar value.

Series [1] relates to Rat SNL tactile allodynia. The series can be described thus: L5/L6 spinal nerve ligation (SNL) Chung pain model, tactile allodynia (von Frey). It counts as in vivo. From the text:
The Spinal Nerve Ligation is an animal model representing peripheral nerve injury generating a neuropathic pain syndrome. In this model experimental animals develop the clinical symptoms of tactile allodynia and hyperalgesia. L5/L6 Spinal nerve ligation (SNL) injury was induced using the procedure of Kim and Chung (Kim et al., Pain 50:355-363 (1992)) in male Sprague-Dawley rats (Harlan; Indianapolis, Ind.) weighing 200 to 250 grams.
Anaesthesia was induced with 2% isofluorane in O2 at 2 L/min and maintained with 0.5% isofluorane in O2. Rats were then shaved and aseptically prepared for surgeries. A 2 cm paraspinal incision was made at the level of L4-S2. L4/L5 was exposed by removing the transverse process above the nerves with a small rongeur. The L5 spinal nerve is the larger of the two visible nerves below the transverse process and lies closest to the spine. The L6 spinal nerve is located beneath the corner of the slope bone. A home-made glass Chung rod was used to hook L5 or L6 and a pre-made slip knot of 4.0 silk suture was placed on the tip of the rod just above the nerve and pulled underneath to allow for the tight ligation. The L5 and L6 spinal nerves were tightly ligated distal to the dorsal root ganglion. The incision was closed, and the animals were allowed to recover for 5 days.
Sham control rats underwent the same operation and handling as the experimental animals, but without SNL.
Prior to initiating drug delivery, baseline behavioural testing data is obtained. At selected times after infusion of the Test or Control Article behavioural data can then be collected again.
The assessment of tactile allodynia consisted of measuring the withdrawal threshold of the paw ipsilateral to the site of nerve injury in response to probing with a series of calibrated von Frey filaments (innocuous stimuli). Animals were acclimated to the suspended wire-mesh cages for 30 min before testing. Each von Frey filament was applied perpendicularly to the plantar surface of the ligated paw of rats for 5 sec. A positive response was indicated by a sharp withdrawal of the paw. For rats, the first testing filament is 4.31. Measurements were taken before and after administration of test articles. […] The protocol was repeated until three changes in behaviour were determined (“up and down” method) (Chaplan et al., J. Neurosci. Methods 53:55-63 (1994)). The 50% paw withdrawal threshold was determined as (10^[Xf+kδ])/10,000, where Xf=the value of the last von Frey filament employed, k=Dixon value for the positive/negative pattern, and S=the logarithmic difference between stimuli. The cut-off values for rats were no less than 0.2 g and no higher than 15 g (5.18 filament); for mice no less than 0.03 g and no higher than 2.34 g (4.56 filament). A significant drop of the paw withdrawal threshold compared to the pre-treatment baseline is considered tactile allodynia. […]

The target in another series is T1, human Nav1.5 channel (Homo sapiens, UniProt Q14524).
T1 construct: expressed in transfected cells; host or cells: HEK cells
T1 sequence (Q14524 whole entry): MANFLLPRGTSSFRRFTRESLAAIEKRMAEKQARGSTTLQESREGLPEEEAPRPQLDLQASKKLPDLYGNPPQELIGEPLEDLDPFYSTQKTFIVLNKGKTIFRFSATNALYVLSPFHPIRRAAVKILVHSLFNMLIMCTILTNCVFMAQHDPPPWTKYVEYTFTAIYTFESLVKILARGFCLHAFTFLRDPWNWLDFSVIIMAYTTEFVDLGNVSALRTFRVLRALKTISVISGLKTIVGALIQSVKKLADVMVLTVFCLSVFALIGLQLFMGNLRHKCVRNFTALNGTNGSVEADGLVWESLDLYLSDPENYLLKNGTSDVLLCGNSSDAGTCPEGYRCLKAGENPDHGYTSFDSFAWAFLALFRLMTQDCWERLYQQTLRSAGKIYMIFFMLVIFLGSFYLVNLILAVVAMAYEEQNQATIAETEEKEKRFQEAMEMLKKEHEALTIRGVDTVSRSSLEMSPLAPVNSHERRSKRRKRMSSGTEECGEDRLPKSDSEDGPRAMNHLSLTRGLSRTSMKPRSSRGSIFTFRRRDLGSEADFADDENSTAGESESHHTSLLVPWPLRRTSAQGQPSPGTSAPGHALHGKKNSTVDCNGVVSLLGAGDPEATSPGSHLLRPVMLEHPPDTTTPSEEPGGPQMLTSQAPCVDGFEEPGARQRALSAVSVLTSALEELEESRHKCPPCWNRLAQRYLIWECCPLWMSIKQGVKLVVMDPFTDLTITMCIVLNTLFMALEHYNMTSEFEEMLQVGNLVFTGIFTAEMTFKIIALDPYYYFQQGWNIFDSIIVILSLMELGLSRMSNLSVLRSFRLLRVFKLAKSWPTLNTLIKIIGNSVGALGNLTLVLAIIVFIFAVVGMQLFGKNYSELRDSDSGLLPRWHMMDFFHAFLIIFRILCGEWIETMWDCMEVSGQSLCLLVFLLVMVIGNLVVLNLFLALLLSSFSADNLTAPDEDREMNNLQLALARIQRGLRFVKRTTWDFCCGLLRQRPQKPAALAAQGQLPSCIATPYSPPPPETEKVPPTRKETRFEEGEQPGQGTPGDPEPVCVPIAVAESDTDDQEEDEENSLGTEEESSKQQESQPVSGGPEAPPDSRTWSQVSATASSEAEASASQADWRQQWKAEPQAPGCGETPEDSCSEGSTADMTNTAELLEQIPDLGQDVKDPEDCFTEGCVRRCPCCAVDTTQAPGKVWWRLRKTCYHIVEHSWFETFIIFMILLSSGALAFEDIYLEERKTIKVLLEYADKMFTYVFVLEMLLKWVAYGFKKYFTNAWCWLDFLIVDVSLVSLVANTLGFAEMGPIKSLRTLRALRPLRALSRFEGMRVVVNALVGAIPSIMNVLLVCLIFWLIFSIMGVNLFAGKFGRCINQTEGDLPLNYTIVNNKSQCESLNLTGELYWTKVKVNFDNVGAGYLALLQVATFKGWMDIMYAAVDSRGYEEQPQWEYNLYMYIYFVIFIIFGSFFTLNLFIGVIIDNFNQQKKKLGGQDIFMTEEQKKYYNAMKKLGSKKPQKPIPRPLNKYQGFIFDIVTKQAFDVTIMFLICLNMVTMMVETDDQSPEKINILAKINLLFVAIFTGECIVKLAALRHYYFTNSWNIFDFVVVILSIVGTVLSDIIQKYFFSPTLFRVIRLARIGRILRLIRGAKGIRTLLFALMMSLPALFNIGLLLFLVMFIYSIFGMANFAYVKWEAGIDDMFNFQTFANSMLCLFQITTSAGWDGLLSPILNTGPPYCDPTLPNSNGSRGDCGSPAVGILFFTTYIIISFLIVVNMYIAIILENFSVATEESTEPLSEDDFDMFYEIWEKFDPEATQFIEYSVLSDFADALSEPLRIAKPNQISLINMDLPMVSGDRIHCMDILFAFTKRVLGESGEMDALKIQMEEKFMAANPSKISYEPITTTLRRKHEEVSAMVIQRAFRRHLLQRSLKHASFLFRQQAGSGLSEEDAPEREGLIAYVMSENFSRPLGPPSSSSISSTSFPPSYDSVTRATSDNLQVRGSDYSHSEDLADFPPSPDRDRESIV
The series can be described thus: NaV1.5 sodium channel screening assay, PatchXpress automated electrophysiology, cardiac action potential waveform 1 Hz. The note with it: cardiac action potential waveform at 1 Hz; HEK cells; read-out: HNAv 1.5 Cardiac AP 1 Hz IC50. It counts as cell-based. As for the experimental part: Inhibition of the TTX-resistant NaV1.5 sodium channel, a key cardiac ion channel, can have profound effects on the duration and amplitude of the cardiac action potential and can result in arrhythmias and other heart malfunctions. To assess the potential cardiac liability of compounds at an early stage in the drug discovery process, a NaV1.5 sodium channel screening assay is performed on Molecular Device's PatchXpress™ automated electrophysiology platform. Under voltage-calmp conditions, NaV1.5 currents were recorded from HEK cells expressing the human Nav1.5 channel in the absence and presence of increasing concentrations of the test compound to obtain an IC50 value. The external recording solution contained (in mM): 90 TEACl, 50 NaCl, 1.8 CaCl, 1 MgCl2, 10 HEPES, 10 glucose, adjusted to pH 7.4 with TEA-OH and to 300 mOsm with sucrose (if necessary), while the internal patch pipette solution contained (in mM): 129 CsF, 2 MgCl2, 11 EGTA, 10 HEPES, 3 Na2ATP adjusted to pH 7.2 with CsOH and to 290 mOsm with sucrose (if necessary). NaV1.5 channel currents were evoked using a cardiac action potential waveform at 1 Hz, digitized at 31.25 kHz and low-pass filtered at 12 kHz.

Series [2] relates to seizures induced by 6 Hz corneal stimulation in CF1 mice. The series can be described thus: 6 Hz psychomotor seizure model of partial epilepsy. It counts as in vivo, mouse. Details: Epilepsy 6 Hz (% protected): concentration or dose not given beside the values. The note with it: 32 mA; for ED50: Mus musculus. As for the experimental part:
Compounds were evaluated for the protection against seizures induced by a 6 Hz, 0.2 ms rectangular pulse width of 3 s duration, at a stimulus intensity of 32 mA (CC97) applied to the cornea of male CF1 mice (20-30 g) according to procedures described by Barton et al, “Pharmacological Characterization of the 6 Hz Psychomotor Seizure Model of Partial Epilepsy,” Epilepsy Res. 47(3):217-27 (2001). Seizures are characterised by the expression of one or more of the following behaviours: stun, forelimb clonus, twitching of the vibrissae and Straub-tail immediately following electrical stimulation.

In another series the test system is mice on rotarod. In words: Mouse rotarod assay (minimal muscular or neurological impairment). It counts as in vivo. As for the experimental part: To assess a compound's undesirable side effects (toxicity), animals were monitored for overt signs of impaired neurological or muscular function. In mice, the rotarod procedure (Dunham and Miya, J. Am. Pharmacol. Assoc. 46:208-209 (1957)) is used to disclose minimal muscular or neurological impairment (MMI). When a mouse is placed on a rod that rotates at a speed of 6 rpm, the animal can maintain its equilibrium for long periods of time. The animal is considered toxic if it falls off this rotating rod three times during a 1-min period.

Series [3] can be described thus: Rat Early Pharmacokinetic (EPK) study. Format: in vivo. As to conditions: PO, 3 mg/kg, formulation PG (propylene glycol); for Tmax: male, Sprague-Dawley, blood. As for the experimental part: Male Sprague-Dawley rats were dosed via oral (PO) gavage in the detailed formulation. Blood samples were collected from the animals at 6 timepoints out to 4 hours post-dose. Pharmacokinetic analysis was performed on the LC-MS/MS measured concentrations for each timepoint of each compound.

In the case of `O=C(CN1CCNCC1=O)Nc1cc(C(F)(F)F)cc(C(F)(F)F)c1` [Compound 1, N-(3,5-bis(trifluoromethyl)phenyl)-2-(2-oxopiperazin-1-yl)acetamide], the “Rat SNL Tactile Allodynia (% Antiallodynia)” value in series [1] (1 hour) amounted to 52%; in series [1] (2 hours), 55%; in series [1] (4 hours), 37%. Also, the pIC50 at human Nav1.5 channel is 4.00. Besides, the figures for the “Epilepsy 6 Hz (% protected)” value in series [2] (0.25 hr), in series [2] (0.5 hr) and in series [2] (1 hr) were 75%, 100% and 75%, respectively. This molecule also registered an ED50 in series [2] of 128 mg/kg. Moreover, the “% Impaired” value in the series with mice on rotarod (0.25 hr), with mice on rotarod (0.5 hr), in the series with mice on rotarod (1 hr), in the series on mice on rotarod (2 hr) and in the series on mice on rotarod (4 hr) was 0% throughout. The “Dose Normalized AUC” value in series [3] was 1,118 nM*h. Further, in series [3], the “Dose Normalized Cmax” value turned out to be 438 nM. The time of peak concentration (Tmax) in series [3] was determined as 15 min.

Turning to `O=C1CN(CC(=O)Nc2cc(C(F)(F)F)cc(C(F)(F)F)c2)CCN1` [Compound 9, N-(3,5-bis(trifluoromethyl)phenyl)-2-(3-oxopiperazin-1-yl)acetamide], in series [1] (1 hour), the “Rat SNL Tactile Allodynia (% Antiallodynia)” value turned out to be 36%. The “Anti-allodynia in rat SNL tactile allodynia (in words)” value in series [1] (at 60 minutes compared to baseline and post-SNL) is “significant anti-allodynia”. In addition, the pIC50 on human Nav1.5 channel was 4.10. For the same molecule, the “Epilepsy 6 Hz (% protected)” value in series [2] (0.25 hr) came out at 75%; in series [2] (0.5 hr), 25%; in series [2] (1 hr), 88%; in series [2] (2 hr) it was 75%; in series [2] (4 hr), 0%. Also, the 50% effect level in series [2] (ED50) was put at a dose of 90 mg/kg. The “% Impaired” value with mice on rotarod (0.25 hr), in the series with mice on rotarod (0.5 hr), in the series with mice on rotarod (1 hr), in the series with mice on rotarod (2 hr) and in the series on mice on rotarod (4 hr) was 0% each time. Also, in series [3], the “Dose Normalized AUC” value is on record as 1,120 nM*h. The “Dose Normalized Cmax” value in series [3] is reported as 484 nM. In addition, in series [3], the Tmax was 84 min.

As a reminder, the pIC50 is −log10 of the IC50, conventionally taken in molar units. Broadly, the ED50 is the dose that gives a 50% effect, or the effect in half of the subjects. Broadly, the Tmax is the time at which the peak concentration occurs.
